The source of these data is USRE29469E, “Hydroxylated 15-deoxy derivatives of 9-hydroxyl-13-trans-prostenoic acid” (American Cyanamid Company, priority 1976, dated 1977).

For test [1], the system named is bronchospasms elicited by 5-hydroxytryptamine. The experiment in a line: Bronchodilator activity (Konzett assay) against 5-hydroxytryptamine. Format: in vivo, guinea pigs. The conditions noted are these: guinea pig, three cumulative intravenous doses; for ED50: Cavia porcellus, read-out: ED50, spasmogenic agent 5-hydroxytryptamine. As for the experimental part: (§1) Bronchodilator activity was determined in guinea pigs against bronchospasms elicited by intravenous injections of 5-hydroxytryptamine, histamine or acetylcholine by the Konzett procedure, [See J. Lulling, P. Lievens, F. El Sayed and J. Prignot, Arzneimittel-Forschung, 18, 995 (1968).]
(§2) In the Table which follows bronchodilator activity for representative compounds of this invention against one or more of the three spasmogenic agents is expressed as an ED50 determined from the results obtained with three logarithemic cumulative intravenous dose.

Test [2] deals with bronchospasms elicited by histamine. Briefly: Bronchodilator activity (Konzett assay) against histamine. It counts as in vivo, guinea pigs. The conditions noted are these: guinea pig, three cumulative intravenous doses; for ED50: Cavia porcellus, read-out: ED50, spasmogenic agent histamine. The protocol: as §1, §2
The subject of the next test is gastric acid secretion. Briefly: Inhibition of gastric acid secretion (modified Shay rat procedure). Format: in vivo, rats (male, CFE strain). The note with it: 3 hours; for inhibition in vivo at 50 mg/kg: intraduodenal dose 50 mg./kg of body weight. The protocol:
The novel compounds of the present invention are also effective inhibitors of gastric acid secretion and of ulcer development in experimental animals, and thus are potentially valuable as agents for the control of gastric acid secretion and of gastric erosion and as anti-ulcer agents. Gastric acid secretion inhibitory action is usually measure by the "Shay rat" procedure^(1,2) with some modifications as follows.
The rats (male, CFE strain) were starved for 48 hours (water was given ad libitum) to permit evacuation of stomach contents. On the morning of the experiment, under ether anesthesia, the abdominal region was shaved and a midline incision (1-11/2 inches) was made with a scapel. With the help of a closed curved hemostate the duodenum was picked up. Upon getting the duodenum into view, fingers were used to pull the stomach through the opening, the stomach was then gently manipulated with fingers to rid the stomach of air and residual matter which were pushed through the pylorus. Two-5 inch sutures were drawn under the pyloric-duodenal puncture. A ligature, at the juncture, was formed with one of the threads. The second ligature was also formed but not tightened.
The test compound and the vehicle, usually 1 ml./100 g. body weight, were injected into the duodenum as close as possible to the first ligature. After injection the second ligature was tightened below the injection site to minimize leakage. The stomach was placed back through the opening into the abdominal cavity, the area of incision was washed with saline and the incision was closed with autoclips. (Occasionally, instead of an intraduodenal injection, animals were dosed by the oral or subcutaneous route. In the latter case, dosing was done 30 to 60 minutes before the operation.)
The abdominal cavity was exposed by cutting with scissors and the esophagus close to the stomach was clamped off with a hemostat, the stomach was removed by cutting above the hemostat (the .[.espphagus.]. .Iadd.esophagus .Iaddend.was cut) and between the two sutures. Extraneous .[.tisue.]. .Iadd.tissue .Iaddend.was removed, the stomach washed with saline and blotted on gauze. A slit was carefully made in the stomach which was held over a funnel and the contents were collected in a centrifuge tube. The stomach was further cut along the outside edge and turned inside out. Two ml. H2 O were used to wash the stomach contents into the respective centrifuged tube. The combined stomach contents and wash were then centrifuged out for 10 min. in the International Size 2 Centrifuge (setting at 30). The supernatant was collected, volume measured and recorded, 2 drops of a phenylphthalein indicator (1% in 95% ethanol) were added and the solution was titrated with 0.02N NaOH (or with 0.04N NaOH when large volumes of stomach contents were encountered to pH 8.4 (because of usual coloring of the stomach contents, phenolphthalein was only used to permit visual indication that the end point was near) and the amount of acid present was calculated.
Compounds inducing inhibition of gastric acid secretion of 20% or more were considered active. In a representative operation, and merely by way of illustration, the results obtained with this assay with typical compounds of the present invention are given in Table II below.

Test [3] deals with bronchospasms elicited by acetylcholine. The experiment in a line: Bronchodilator activity (Konzett assay) against acetylcholine. Format: in vivo, guinea pigs. The note with it: Cavia porcellus, guinea pig, three cumulative intravenous doses, read-out: ED50, spasmogenic agent choline. The protocol:
as §1, §2

In test [4] the test system is ulcerogenic properties of indomethacin. The experiment in a line: Anti-ulcerogenic effect (protection against the ulcerogenic properties of indomethacin). Format: in vivo, rats. The conditions noted are these: indomethacin 20 mg./kg s.c. The protocol: The compounds of this invention also provide protection against the ulcerogenic properties of indomethacin. This assay was carried out in the following manner.
Rats were starved for 48 hours (water was given ad libitum). Indomethacin (20 mg./kg. of body weight) was administered by the subcutaneous route and one-half the dose of the test compound was administered by gavage at the same time. After 3 hours, the second half of the test compound was administered also by gavage. Five hours after the administration of indomethacin the animals were decapitated and the stomachs removed. The stomachs were washed with distilled water, blotted on gauze, cut along the larger curvature, and the contents rinsed with distilled water. The stomachs were spread out, pinned on a cork and visualized under magnifying glass for ulcers. The criteria for scoring of .[.ulers.]. .Iadd.ulcers .Iaddend. was as previously reported. [Abdel-Galil et al. Brit. J. Pharmac. Chemotherapy 33:1-14 (1968)]. […]
1- Petechial hemorrhage or pin point ulcers
3- Many ulcers, a few large
4- Many ulcers, mainly large
A difference of at least 0.7 unit between the scores for control animals (treated with indomethacin but not test compound) and animals treated with indomethacin and test compound is considered indicative of activity for the test compound. (Control animals treated with neither indomethacin nor test compound give scores of about 0.5-0.8.) The results obtained in this assay with typical compounds of the present invention are set forth in Table I below.

The mark [5] stands for this setting: Rattus norvegicus, read-out: Percent Inhibition.
Setting [6] is: total oral dose 50 mg./kg, control score 2.3, scale 0 (normal stomach) to 4 (many ulcers, mainly large).
[7] abbreviates: Rattus norvegicus, intraduodenal dose 100 mg./kg of body weight, read-out: Percent Inhibition.

As for “9-oxo-18-hydroxy-19-hydroxy-13-trans-prostenoic acid”, the “ED50, spasmogenic agent 5-hydroxytryptamine” value in test [1] was determined as 1.19 mg/kg. Further, in test [2], the “ED50, spasmogenic agent histamine” value was 1.04 mg/kg. In the test on gastric acid secretion (intraduodenal dose 100 mg./kg of body weight), the “Percent Inhibition” value came to 28%.

What is called ED50 is the dose at which the effect has come halfway, by size or by number of responders. As to `CCCCC(O)C/C=C/[C@H]1[C@H](O)CC(=O)[C@@H]1CCCCCCC(=O)O` (relative stereo) [9-oxo-11α ,16-dihydroxy-13-trans-prostenoic acid], the median effective dose (ED50) is 0.00042 mg/kg in test [3], 0.000607 mg/kg in test [1] and 0.166 mg/kg in test [2]. The Score treated in test [4] (total oral dose 0.18 mg./kg, control score 3.0, scale 0-4) was determined as 2.5; in test [4] (total oral dose 0.39 mg./kg, control score 3.0, scale 0-4), 2.0; in test [4] (total oral dose 0.78 mg./kg, control score 3.0, scale 0-4) it was 1.5; in test [4] (total oral dose 1.56 mg./kg, control score 2.5, scale 0-4), 1.0; in test [4] (total oral dose 4.4 mg./kg, control score 3.0, scale 0-4), 1.0; in test [4] (total oral dose 12.5 mg./kg, control score 3.0, scale 0-4), 1.0. Also, the inhibition in vivo at 0.4 mg/kg with gastric acid secretion (Rattus norvegicus, dose 0.4* mg./kg of body weight (asterisk not explained), read-out: Percent Inhibition) was 27%. Besides, in the test on gastric acid secretion (Rattus norvegicus, dose 0.8* mg./kg of body weight (asterisk not explained), read-out: Percent Inhibition), the inhibition in vivo at 0.8 mg/kg is 53%. In addition, in the test with gastric acid secretion (Rattus norvegicus, dose 1.6* mg./kg of body weight (asterisk not explained), read-out: Percent Inhibition), the inhibition in vivo at 1.6 mg/kg was found to be 79%.

As to `CCCC(O)CC/C=C/[C@H]1[C@H](O)CC(=O)[C@@H]1CCCCCCC(=O)O` (relative stereo) [9-oxo-11α,17-dihydroxy-13-trans-prostenoic acid], the ED50 is 0.518 mg/kg in test [3], 0.235 mg/kg in test [1] and 0.45 mg/kg in test [2]. The same compound yielded a Score treated in test [4] (total oral dose 25 mg./kg, control score 2.7, scale 0-4) of 1.3. The inhibition in vivo at 50 mg/kg in the test on gastric acid secretion (setting [5]) worked out at 73%.

As for `O=C(O)CCCCCC[C@H]1C(=O)C[C@@H](O)[C@@H]1/C=C/CCCCCCO` (relative stereo) [11α ,20-dihydroxy-9-oxo-13-trans-prostenoic acid], the values for the median effective dose (ED50) in test [3], in test [1] and in test [2] were 2.34 mg/kg, 0.377 mg/kg and 0.077 mg/kg, respectively.

For `CCCCC(O)C/C=C/[C@H]1CCC(=O)[C@@H]1CCCCCCC(=O)O` (relative stereo) [16-hydroxy-9-oxo-13-trans-prostenoic acid], the results for the ED50 in test [3] and in test [2] were 0.455 mg/kg and 0.0346 mg/kg, respectively. This compound came in with a Score treated in test [4] (setting [6]) of 1.2. The inhibition in vivo at 50 mg/kg in the test with gastric acid secretion (setting [5]) came to 67%.

Regarding `O=C(O)CCCCCC[C@H]1C(=O)C=C[C@@H]1/C=C/CCCCCCO` (relative stereo) [20-hydroxy-9-oxo-10,13-trans-prostadienoic acid], the values for the median effective dose (ED50) in test [1] and in test [2] were 1.32 mg/kg and 2.28 mg/kg, respectively. The inhibition in vivo at 50 mg/kg in the test on gastric acid secretion (setting [5]) was found to be 91%.

Turning to `O=C(O)CCCCCC[C@H]1C(=O)CC[C@@H]1/C=C/CCCCCCO` (relative stereo) [20-hydroxy-9-oxo-13-trans-prostenoic acid], the ED50 in test [3] was found to be 2.16 mg/kg; in test [1], 0.117 mg/kg; in test [2], 0.03 mg/kg. Further, the inhibition in vivo at 100 mg/kg with gastric acid secretion (setting [7]) worked out at 56%.

Turning to `O=C(O)CCCCCC[C@@H]1C(=O)CC[C@H]1/C=C/CCCCO` (relative stereo) [20-hydroxy-9-oxo-18,19-dinor-13-trans-prostenoic acid], the values for the ED50 in test [3], in test [1] and in test [2] were 10 mg/kg, 2.85 mg/kg and 2.22 mg/kg, respectively. The inhibition in vivo at 50 mg/kg with gastric acid secretion (setting [5]) worked out at 21%.

Regarding `CCOC(=O)CCCCCC[C@@H]1C(=O)CC[C@H]1/C=C/CCCCO` (relative stereo) [ethyl 20-hydroxy-9-oxo-18,19-dinor-13trans-prostenoate], the inhibition in vivo at 100 mg/kg in the test on gastric acid secretion (setting [7]) was 49%.

With `CCCCC(O)CCC[C@H]1CCC(=O)[C@@H]1CCCCCCC(=O)O` (stereo partly shown) [9-oxo-16-hydroxy-prostanoic acid, 16-hydroxy-9-oxo-prostanoic acid], the ED50 in test [3] was 1.13 mg/kg; in test [1] it was 0.0927 mg/kg. Also, in test [4] (setting [6]), the Score treated stood at 1.3. In addition, the inhibition in vivo at 50 mg/kg in the test on gastric acid secretion (setting [5]) is 58%.
